In article PMC3287420 (Nature chemical biology, 2011):

How the values were obtained:
[1] = molecular target: T1, GST-LRRK2 [A2016T] (1326-2517) (Homo sapiens, UniProt Q5S007, A2016T); conditions: cited from earlier work
T1 sequence (Q5S007 1326-2527 A2016T): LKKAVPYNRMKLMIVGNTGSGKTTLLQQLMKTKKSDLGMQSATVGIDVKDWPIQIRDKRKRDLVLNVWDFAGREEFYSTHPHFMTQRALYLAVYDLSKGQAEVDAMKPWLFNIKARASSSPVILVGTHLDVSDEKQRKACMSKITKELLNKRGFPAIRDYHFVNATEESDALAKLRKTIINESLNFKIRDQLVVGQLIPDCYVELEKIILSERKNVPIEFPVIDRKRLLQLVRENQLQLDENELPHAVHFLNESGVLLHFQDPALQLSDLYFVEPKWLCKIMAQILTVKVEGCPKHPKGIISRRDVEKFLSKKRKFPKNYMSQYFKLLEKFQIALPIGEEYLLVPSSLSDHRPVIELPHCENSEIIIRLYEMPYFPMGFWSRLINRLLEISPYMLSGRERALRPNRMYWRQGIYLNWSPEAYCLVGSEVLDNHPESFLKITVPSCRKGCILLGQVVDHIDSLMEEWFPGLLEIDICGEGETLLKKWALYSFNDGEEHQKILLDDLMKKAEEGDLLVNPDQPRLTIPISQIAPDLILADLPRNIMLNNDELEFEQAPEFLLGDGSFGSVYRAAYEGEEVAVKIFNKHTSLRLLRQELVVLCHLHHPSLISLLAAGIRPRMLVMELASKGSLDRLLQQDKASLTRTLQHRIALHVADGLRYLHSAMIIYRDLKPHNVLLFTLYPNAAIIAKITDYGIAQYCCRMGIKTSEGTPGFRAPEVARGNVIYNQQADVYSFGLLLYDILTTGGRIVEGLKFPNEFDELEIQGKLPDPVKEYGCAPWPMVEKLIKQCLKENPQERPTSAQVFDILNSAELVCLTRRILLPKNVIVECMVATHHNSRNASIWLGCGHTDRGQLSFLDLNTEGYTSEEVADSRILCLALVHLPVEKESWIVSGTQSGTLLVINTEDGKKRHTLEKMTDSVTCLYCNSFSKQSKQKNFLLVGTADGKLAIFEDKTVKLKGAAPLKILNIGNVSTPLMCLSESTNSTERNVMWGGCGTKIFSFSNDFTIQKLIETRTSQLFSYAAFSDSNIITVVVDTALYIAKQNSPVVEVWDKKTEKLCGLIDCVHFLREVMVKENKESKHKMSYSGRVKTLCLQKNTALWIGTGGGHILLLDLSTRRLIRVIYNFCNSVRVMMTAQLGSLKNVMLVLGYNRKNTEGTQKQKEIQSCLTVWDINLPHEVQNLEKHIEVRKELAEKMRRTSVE

Pharmacokinetics in mice = type: in vivo; conditions: mouse, plasma, po, 10 mg/kg
GFP-LRRK2[A2016T+G2019S] [2] = test system: GFP-LRRK2[A2016T+G2019S]
[3] = test system: kinase inactive LRRK2 {D2017A]; type: cell-based; conditions: 1 µM, 2 h
GFP-LRRK2 [A2016T] [4] = test system: GFP-LRRK2 [A2016T]
GFP-LRRK2 = test: Fluorescence microscopy of LRRK2 localisation, HEK 293 stable cells; type: cell-based; conditions: 1 µM, 2 h time course
DCLK2 = molecular target: T2, DCLK2 (Homo sapiens, UniProt Q8N568); test: Invitrogen SelectScreen biochemical assay
T2 sequence (Q8N568 1-766): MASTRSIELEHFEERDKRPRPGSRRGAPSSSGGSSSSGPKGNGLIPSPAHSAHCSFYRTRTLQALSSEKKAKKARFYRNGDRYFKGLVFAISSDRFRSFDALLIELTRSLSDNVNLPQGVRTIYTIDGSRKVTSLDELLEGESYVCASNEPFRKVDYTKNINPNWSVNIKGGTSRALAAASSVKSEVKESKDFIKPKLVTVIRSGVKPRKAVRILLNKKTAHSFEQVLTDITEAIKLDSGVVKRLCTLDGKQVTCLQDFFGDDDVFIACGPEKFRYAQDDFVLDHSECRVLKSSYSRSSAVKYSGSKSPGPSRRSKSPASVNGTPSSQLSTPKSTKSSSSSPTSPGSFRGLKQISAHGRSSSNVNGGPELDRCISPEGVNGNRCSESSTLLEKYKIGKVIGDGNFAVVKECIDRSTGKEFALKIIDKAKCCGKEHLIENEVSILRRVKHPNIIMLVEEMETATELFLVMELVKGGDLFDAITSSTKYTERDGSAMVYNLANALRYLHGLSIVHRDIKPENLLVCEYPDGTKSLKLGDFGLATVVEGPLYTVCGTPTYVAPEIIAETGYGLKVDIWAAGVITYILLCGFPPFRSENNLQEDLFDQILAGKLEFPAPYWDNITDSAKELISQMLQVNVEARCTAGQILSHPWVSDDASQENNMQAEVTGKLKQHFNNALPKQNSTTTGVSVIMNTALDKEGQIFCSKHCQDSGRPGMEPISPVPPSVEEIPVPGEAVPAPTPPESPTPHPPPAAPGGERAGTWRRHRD

GFP-LRRK2[A2016T+G2019S] [5] = test: Fluorescence microscopy of LRRK2 localisation, HEK 293 stable cells; type: cell-based; conditions: 1 µM, 2 h time course
LRRK2 = type: binding; conditions: hPBMC and mouse brain tissue profiling
CHEK2 [6] = molecular target: T3, CHEK2 (Homo sapiens, UniProt O96017); test: Invitrogen SelectScreen biochemical assay
Target sequence in this assay (O96017 whole entry, species assumed): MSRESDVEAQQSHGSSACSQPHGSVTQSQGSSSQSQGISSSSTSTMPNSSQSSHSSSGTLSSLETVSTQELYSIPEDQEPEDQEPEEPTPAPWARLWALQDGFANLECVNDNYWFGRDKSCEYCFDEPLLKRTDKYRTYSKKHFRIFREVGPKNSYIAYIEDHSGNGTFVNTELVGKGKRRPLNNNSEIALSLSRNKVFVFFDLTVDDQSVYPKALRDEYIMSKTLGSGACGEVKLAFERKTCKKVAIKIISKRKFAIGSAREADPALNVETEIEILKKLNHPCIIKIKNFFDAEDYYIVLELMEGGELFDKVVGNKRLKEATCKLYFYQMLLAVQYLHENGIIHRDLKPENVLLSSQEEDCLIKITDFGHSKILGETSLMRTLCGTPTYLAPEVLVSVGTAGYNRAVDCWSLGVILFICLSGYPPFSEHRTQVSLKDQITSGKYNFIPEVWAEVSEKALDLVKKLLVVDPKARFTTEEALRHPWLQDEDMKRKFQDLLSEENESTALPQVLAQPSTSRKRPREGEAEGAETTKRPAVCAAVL

endogenous LRRK2 = conditions: mice, 100 mg/kg intraperitoneal, 1 h and 2 h time points
AURKB = AURKB (Homo sapiens, UniProt Q96GD4); test: Invitrogen SelectScreen biochemical assay
MAPK7 = MAPK7 (Homo sapiens, UniProt Q13164); test: KiNativ; type: binding; conditions: hPBMC and mouse brain tissue profiling
MKNK2 = MKNK2 (Homo sapiens, UniProt Q9HBH9); test: Invitrogen SelectScreen biochemical assay
NUAK1 = molecular target: T4, NUAK1 (Homo sapiens, UniProt O60285); test: Invitrogen SelectScreen biochemical assay
T4 sequence (O60285 1-661): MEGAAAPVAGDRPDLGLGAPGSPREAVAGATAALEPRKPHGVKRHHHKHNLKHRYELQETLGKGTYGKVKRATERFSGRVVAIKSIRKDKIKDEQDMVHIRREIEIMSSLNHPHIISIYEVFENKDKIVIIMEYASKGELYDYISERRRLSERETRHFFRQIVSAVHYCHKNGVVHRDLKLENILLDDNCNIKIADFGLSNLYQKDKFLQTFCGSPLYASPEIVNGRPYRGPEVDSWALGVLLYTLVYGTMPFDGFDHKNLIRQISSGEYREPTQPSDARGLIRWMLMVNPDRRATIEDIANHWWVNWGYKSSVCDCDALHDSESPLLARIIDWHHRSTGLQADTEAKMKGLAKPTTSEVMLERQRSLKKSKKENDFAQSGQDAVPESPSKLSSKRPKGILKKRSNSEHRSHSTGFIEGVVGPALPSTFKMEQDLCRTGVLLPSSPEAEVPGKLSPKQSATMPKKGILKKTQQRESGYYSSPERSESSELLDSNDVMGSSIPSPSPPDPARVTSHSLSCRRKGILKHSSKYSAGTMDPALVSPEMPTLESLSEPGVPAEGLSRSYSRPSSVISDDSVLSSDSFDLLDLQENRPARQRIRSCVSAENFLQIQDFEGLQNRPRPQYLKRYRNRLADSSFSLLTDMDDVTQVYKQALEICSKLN

DCLK1 = test: KiNativ; type: binding; conditions: hPBMC and mouse brain tissue profiling
GFP-LRRK2 [A2016T] [7] = test: Fluorescence microscopy of LRRK2 localisation, HEK 293 stable cells; type: cell-based; conditions: 1 µM, 2 h time course
MYLK = MYLK (Homo sapiens, UniProt Q15746); test: Invitrogen SelectScreen biochemical assay
GFP-LRRK1 = test: Fluorescence microscopy of LRRK1 localisation, HEK 293 stable cells; type: cell-based; conditions: 1 µM, 2 hours
CHEK2 [8] = molecular target: T3, CHEK2; test: KiNativ; type: binding
Target sequence in this assay (O96017 whole entry): as the sequence (O96017 whole entry, species assumed) above

PLK1 = PLK1 (Homo sapiens, UniProt P53350); test: Invitrogen SelectScreen biochemical assay
Chain of PLK1 (P53350 whole entry): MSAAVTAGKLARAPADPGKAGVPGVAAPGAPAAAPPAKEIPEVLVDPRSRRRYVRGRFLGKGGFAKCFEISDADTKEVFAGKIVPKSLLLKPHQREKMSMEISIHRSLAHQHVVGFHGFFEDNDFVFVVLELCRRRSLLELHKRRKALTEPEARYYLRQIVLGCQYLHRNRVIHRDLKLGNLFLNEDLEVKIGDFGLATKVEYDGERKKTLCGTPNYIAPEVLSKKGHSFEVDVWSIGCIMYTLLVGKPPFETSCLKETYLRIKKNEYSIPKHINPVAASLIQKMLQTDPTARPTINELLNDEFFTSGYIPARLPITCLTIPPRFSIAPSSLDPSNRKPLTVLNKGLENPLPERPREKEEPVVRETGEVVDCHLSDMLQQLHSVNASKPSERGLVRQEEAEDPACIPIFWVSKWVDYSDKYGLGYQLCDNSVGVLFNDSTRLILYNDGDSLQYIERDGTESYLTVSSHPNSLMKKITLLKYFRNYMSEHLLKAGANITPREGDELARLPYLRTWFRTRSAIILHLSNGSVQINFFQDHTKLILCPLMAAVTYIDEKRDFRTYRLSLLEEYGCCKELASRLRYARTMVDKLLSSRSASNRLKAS

Chain of AURKB (Q96GD4 whole entry, species assumed): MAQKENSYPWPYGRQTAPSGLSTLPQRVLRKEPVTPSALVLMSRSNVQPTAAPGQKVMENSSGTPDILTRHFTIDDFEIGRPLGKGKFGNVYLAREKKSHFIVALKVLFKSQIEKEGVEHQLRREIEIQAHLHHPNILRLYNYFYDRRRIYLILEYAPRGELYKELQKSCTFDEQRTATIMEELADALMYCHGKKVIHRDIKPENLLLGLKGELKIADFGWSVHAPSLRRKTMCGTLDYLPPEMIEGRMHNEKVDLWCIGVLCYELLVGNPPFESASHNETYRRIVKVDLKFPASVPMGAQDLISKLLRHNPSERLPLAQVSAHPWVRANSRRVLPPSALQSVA
Chain of MYLK (Q15746 whole entry, species assumed): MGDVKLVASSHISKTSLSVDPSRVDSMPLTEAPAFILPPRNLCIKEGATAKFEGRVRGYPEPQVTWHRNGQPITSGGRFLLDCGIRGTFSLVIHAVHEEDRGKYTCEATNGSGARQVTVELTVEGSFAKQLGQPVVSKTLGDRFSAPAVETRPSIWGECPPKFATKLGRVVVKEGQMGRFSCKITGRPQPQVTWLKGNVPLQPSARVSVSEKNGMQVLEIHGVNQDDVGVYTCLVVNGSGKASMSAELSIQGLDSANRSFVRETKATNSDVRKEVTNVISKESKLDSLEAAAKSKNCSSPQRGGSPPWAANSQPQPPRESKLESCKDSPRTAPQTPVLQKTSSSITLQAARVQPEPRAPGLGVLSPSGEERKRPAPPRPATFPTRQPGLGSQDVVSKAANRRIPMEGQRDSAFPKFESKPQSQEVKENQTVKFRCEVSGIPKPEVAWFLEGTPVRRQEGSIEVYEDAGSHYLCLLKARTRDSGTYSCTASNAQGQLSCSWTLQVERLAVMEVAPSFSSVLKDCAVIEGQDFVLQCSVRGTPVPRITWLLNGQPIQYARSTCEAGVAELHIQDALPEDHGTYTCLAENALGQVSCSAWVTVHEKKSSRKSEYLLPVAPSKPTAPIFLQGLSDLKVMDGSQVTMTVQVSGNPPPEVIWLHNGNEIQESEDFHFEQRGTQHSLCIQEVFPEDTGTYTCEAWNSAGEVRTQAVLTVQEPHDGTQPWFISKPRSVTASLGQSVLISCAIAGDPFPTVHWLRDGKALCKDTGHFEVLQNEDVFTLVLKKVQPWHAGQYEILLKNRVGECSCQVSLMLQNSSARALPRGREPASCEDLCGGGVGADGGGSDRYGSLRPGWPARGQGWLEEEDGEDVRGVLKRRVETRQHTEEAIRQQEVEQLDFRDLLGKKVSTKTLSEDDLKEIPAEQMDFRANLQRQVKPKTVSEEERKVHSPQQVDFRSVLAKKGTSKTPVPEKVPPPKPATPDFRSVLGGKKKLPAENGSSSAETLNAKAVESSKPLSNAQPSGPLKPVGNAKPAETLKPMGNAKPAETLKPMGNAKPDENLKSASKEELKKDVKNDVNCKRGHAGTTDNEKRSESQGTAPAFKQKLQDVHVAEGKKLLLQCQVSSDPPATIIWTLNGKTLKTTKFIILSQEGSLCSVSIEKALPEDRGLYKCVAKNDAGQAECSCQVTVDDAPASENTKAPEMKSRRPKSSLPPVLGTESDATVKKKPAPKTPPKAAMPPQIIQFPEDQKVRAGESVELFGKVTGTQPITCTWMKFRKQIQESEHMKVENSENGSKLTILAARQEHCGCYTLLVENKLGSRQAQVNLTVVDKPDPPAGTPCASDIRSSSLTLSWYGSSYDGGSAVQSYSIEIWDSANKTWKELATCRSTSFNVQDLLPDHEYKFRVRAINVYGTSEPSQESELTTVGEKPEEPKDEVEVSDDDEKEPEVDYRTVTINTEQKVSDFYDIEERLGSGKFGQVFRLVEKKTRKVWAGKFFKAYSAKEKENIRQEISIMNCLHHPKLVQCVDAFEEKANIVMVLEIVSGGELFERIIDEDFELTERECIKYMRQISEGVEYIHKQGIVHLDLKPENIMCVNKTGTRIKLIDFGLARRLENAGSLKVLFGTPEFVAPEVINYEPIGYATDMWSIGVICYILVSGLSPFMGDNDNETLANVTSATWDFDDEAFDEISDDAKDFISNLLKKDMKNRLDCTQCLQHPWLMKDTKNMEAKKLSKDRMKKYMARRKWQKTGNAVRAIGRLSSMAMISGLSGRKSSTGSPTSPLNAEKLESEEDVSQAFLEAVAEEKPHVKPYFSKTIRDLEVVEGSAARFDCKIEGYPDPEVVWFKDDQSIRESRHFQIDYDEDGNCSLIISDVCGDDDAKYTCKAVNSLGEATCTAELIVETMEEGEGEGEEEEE
Chain of MAPK7 (Q13164 whole entry): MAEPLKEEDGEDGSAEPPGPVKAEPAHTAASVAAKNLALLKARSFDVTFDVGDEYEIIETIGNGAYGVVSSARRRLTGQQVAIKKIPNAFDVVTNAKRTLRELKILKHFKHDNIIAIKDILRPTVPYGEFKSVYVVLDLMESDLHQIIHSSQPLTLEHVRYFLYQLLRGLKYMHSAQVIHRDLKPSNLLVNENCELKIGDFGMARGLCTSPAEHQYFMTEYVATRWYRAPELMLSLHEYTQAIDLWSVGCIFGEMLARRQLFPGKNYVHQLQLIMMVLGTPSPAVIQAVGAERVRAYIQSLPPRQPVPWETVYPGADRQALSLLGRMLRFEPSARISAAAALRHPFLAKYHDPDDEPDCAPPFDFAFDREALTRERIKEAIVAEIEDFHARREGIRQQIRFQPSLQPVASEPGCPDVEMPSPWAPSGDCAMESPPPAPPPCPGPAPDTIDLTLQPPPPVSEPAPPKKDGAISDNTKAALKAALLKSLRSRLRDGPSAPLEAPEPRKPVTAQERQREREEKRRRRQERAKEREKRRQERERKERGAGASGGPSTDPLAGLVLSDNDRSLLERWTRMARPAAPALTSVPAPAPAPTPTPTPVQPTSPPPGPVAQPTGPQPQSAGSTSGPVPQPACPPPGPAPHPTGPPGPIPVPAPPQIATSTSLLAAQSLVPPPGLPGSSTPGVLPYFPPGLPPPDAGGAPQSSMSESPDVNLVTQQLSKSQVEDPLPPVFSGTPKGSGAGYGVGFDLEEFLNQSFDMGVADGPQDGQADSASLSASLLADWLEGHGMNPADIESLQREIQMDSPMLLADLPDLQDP
Chain of MKNK2 (Q9HBH9 whole entry, species assumed): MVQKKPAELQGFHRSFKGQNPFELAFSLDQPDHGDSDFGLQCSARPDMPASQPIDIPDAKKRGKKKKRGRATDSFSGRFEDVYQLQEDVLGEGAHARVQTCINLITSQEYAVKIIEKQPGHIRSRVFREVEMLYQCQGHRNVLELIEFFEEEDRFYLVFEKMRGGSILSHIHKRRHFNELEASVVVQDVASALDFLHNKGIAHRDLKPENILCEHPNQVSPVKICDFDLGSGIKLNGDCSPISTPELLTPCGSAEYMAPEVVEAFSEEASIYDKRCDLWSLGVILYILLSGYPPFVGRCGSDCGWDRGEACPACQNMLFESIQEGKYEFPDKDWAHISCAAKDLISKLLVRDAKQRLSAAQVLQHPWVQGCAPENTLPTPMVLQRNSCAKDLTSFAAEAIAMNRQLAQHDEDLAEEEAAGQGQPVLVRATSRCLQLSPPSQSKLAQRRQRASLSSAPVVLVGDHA

Cc1cncc2cccc(S(=O)(=O)N3CCCNC[C@@H]3C)c12 [H-1152]
fold less sensitive to inhibitor [1]: 32 fold

COc1cc(C(=O)N2CCC(N3CCN(C)CC3)CC2)ccc1Nc1ncc2c(n1)N(C)c1ccccc1C(=O)N2C [LRRK2-IN-1]
AUC(0-inf) (Pharmacokinetics in mice): 14800 ng·h/mL | bioavailability (Pharmacokinetics in mice): 49.3% | dephosphorylation of Ser910/Ser935 (GFP-LRRK2[A2016T+G2019S] [2]): failed to induce dephosphorylation | dephosphorylation of Ser910/Ser935 [3]: did not induce significant dephosphorylation | dephosphorylation of Ser910/Ser935 (GFP-LRRK2 [A2016T] [4]): failed to induce dephosphorylation | localization of LRRK2 (accumulation into aggregate structures) (GFP-LRRK2): significant accumulation | IC50 (DCLK2): 45 nM | localization of LRRK2 (GFP-LRRK2[A2016T+G2019S] [5]): did not affect the localization | inhibition in KiNativ profiling (LRRK2): confirmed inhibition | IC50 (CHEK2 [6]): > 1000 nM | Ser910/Ser935 dephosphorylation of LRRK2 in the kidney (endogenous LRRK2): complete Ser910/Ser935 dephosphorylation | dephosphorylation of LRRK2 Ser910 or Ser935 in brain (endogenous LRRK2): no dephosphorylation | IC50 (AURKB): > 1000 nM | inhibition in KiNativ profiling (MAPK7): confirmed inhibition | IC50 (MKNK2): > 1000 nM | IC50 (NUAK1): > 1000 nM | inhibition in KiNativ profiling (DCLK1): confirmed inhibition | localization of LRRK2 (GFP-LRRK2 [A2016T] [7]): did not affect the localization | IC50 (MYLK): > 1000 nM | localization of LRRK1 (GFP-LRRK1): does not change | IC50 (CHEK2 [8]): > 1000 nM | IC50 (PLK1): > 1000 nM

CCN(CC)CCNC(=O)c1c(C)[nH]c(/C=C2\C(=O)Nc3ccc(F)cc32)c1C [sunitinib]
fold less sensitive to inhibitor [1]: 12 fold
